Data set [1] addresses 5-hydroxytryptamine receptor 6 (Homo sapiens, UniProt P50406). Briefly: Displacement of [3H]-LSD from human 5-HT6 receptor expressed in HEK293 cell membranes after 1 hr by microbeta counting analysis.
Data set [2] can be described thus: Displacement of [3H]-prazosin from adrenergic alpha 1 receptor in pig brain cortical membranes after 50 mins by microbeta counting analysis. The format is ADME, cell membranes, Sus scrofa.
Data set [3] is described as follows: Stability in mouse liver microsomes assessed as oxidative metabolism by measuring drug recovery at 10 uM preincubated for 10 mins followed by NADPH addition measured after 30 mins by liquid chromatographic method. The format is ADME. Conditions: liver microsomes, read-out: Drug recovery. A general note: Microsomes from liver hold many membrane-bound enzymes, among them those of drug oxidation.

Data set [4] is described as follows: Retention factor, logKw of compound in MeOH/0.01 M phosphate buffer at pH 7.4 by RP-HPLC method. The class given is physicochemical.
The target of data set [5] is 5-hydroxytryptamine receptor 7 (Homo sapiens, UniProt P34969). Briefly: Displacement of [3H]-5-CT from human 5-HT7b receptor expressed in HEK293 cell membranes after 1 hr by microbeta counting analysis. Background: In a radioligand displacement assay an active substance lowers the binding of a labelled ligand.
Data set [6] addresses T1, 5-hydroxytryptamine receptor 1A (Homo sapiens, UniProt P08908).
T1 sequence (P08908 whole entry): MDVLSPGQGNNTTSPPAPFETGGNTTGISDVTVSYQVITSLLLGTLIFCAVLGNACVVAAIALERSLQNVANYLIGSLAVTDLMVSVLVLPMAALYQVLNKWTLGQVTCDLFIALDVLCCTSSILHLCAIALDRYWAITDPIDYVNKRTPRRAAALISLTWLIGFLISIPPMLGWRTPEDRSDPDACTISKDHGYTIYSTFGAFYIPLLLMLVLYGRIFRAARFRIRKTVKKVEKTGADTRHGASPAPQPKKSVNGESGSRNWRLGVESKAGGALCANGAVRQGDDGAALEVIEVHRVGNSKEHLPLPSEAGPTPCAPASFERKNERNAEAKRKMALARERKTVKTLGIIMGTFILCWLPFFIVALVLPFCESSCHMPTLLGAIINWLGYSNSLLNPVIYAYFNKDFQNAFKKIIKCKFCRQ
In words: Displacement of [3H]-8-OH-DPAT from human 5-HT1A receptor expressed in HEK293 cell membranes after 1 hr by microbeta counting analysis.

The next data set deals with D(2) dopamine receptor (Homo sapiens, UniProt P14416). In words: Displacement of [3H]raclopride from human dopamine D2L receptor expressed in HEK293 cell membranes after 1 hr by microbeta counting analysis. The class given is cell-based.

Each structure is given as a SMILES string. Some results are limits rather than exact numbers.

Sequence of 5-hydroxytryptamine receptor 7 (P34969 whole entry): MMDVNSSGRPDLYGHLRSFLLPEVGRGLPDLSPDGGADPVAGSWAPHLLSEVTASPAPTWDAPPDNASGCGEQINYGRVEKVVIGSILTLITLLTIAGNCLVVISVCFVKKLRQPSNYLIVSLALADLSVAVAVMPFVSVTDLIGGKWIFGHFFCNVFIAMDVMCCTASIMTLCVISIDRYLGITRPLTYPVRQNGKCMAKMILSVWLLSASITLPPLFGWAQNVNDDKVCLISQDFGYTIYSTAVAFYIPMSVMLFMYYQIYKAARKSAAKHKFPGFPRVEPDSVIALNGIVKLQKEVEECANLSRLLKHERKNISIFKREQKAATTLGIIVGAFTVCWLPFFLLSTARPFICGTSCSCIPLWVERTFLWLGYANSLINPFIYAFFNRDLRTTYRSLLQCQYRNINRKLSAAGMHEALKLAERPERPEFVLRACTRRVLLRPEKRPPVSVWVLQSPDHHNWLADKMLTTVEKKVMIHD
Sequence of D(2) dopamine receptor (P14416 whole entry): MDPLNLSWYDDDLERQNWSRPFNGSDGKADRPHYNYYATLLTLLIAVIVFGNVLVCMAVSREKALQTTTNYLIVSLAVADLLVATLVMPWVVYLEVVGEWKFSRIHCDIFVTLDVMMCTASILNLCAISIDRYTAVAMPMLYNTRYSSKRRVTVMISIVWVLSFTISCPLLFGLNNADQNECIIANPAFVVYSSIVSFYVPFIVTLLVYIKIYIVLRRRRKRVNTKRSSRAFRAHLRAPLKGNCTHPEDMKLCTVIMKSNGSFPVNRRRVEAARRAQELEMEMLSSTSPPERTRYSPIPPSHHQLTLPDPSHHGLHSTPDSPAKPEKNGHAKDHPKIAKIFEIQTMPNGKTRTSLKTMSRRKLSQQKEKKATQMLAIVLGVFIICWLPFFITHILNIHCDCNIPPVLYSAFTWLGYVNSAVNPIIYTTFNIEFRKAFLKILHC
Sequence of 5-hydroxytryptamine receptor 6 (P50406 whole entry): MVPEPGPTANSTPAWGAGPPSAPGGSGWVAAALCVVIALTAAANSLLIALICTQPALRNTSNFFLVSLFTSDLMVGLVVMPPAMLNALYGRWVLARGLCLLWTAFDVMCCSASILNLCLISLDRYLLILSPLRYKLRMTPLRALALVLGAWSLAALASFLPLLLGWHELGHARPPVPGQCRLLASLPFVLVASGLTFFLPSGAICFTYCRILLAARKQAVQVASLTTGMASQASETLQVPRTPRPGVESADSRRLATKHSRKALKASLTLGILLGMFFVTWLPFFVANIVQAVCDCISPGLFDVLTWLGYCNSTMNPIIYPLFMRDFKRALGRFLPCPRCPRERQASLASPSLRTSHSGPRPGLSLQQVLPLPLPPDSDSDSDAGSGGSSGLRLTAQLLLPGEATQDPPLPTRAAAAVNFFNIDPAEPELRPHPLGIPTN

By Ki is commonly meant the equilibrium dissociation constant of an inhibitor or competing ligand from its target. A low value points to higher affinity. Consider `N#Cc1ccc(CNC(=O)CCOCCN2CCN(c3ccccc3-c3ccccc3)CC2)cc1`, for which the Ki in data set [1] came to 148 nM; in data set [2], 9.3 nM. The remaining at 0.5 h, 10 µM in data set [3] came to 5%. This compound had a logKw in data set [4] of 0.41.
Consider `O=C(CCOCCN1CCN(c2ccccc2-c2ccccc2)CC1)NCc1ccncc1`, for which the inhibition constant (Ki) in data set [5] was found to be 53 nM; in data set [6], 1050 nM; in data set [1], 2520 nM; at D(2) dopamine receptor it was 2450 nM; in data set [2], 94 nM. The remaining at 0.5 h, 10 µM in data set [3] is 13%. In data set [4], this compound showed a logKw of 0.27.
On to `O=C(CCOCCN1CCN(c2ncccc2-c2ccc(F)cc2)CC1)NCc1ccc(C(F)(F)F)cc1`, for which the inhibitory constant (Ki) came to 32 nM in data set [5]; 1840 nM in data set [6]; 1070 nM in data set [1]; 393 nM at D(2) dopamine receptor; 1370 nM in data set [2]. Further, the remaining at 0.5 h, 10 µM in data set [3] worked out at 2%. Moreover, in data set [4], the logKw is 0.42.
For the compound `COc1ccc(-c2ccccc2N2CCN(CCCCCC(=O)NCc3ccncc3)CC2)cc1`, the remaining at 0.5 h, 10 µM in data set [3] is 35%. Also, the logKw in data set [4] is reported as 0.39.
As to `O=C(CCOCCN1CCN(c2cccnc2-c2ccc(F)cc2)CC1)NCc1ccc(C(F)(F)F)cc1`, the Ki in data set [5] stood at 254 nM; in data set [6], 6060 nM; in data set [1] it was 2630 nM; on D(2) dopamine receptor, 3460 nM; in data set [2] it was 263 nM. Besides, the remaining at 0.5 h, 10 µM in data set [3] was 6%. The logKw in data set [4] worked out at 0.14.
Take `COc1ccc(-c2ccccc2N2CCN(CCOCCC(=O)NCc3ccncc3)CC2)cc1`: in data set [3], the remaining at 0.5 h, 10 µM is 25%. For the same compound, the logKw in data set [4] was determined as 0.25.
As to `N#Cc1ccc(CNC(=O)CCOCCN2CCN(c3ncccc3-c3ccccc3)CC2)cc1`, the Ki turned out to be 76 nM in data set [5], 595 nM in data set [6] and 1630 nM in data set [1]. Further, the remaining at 0.5 h, 10 µM in data set [3] fell in the range of 1.6 to 3%. Also, the logKw in data set [4] was found to be 0.11.
In the case of `COc1ccc(-c2ccccc2N2CCN(CCOCCC(=O)NCc3ccccn3)CC2)cc1`, in data set [3], the remaining at 0.5 h, 10 µM is 19%. This compound also registered a logKw in data set [4] of 0.32.
Turning to `COc1ccc(-c2ccccc2N2CCN(CCCCCC(=O)NCc3ccc(OCCCN4CCOCC4)cc3)CC2)cc1`, the Ki in data set [5] worked out at 18.5 nM; in data set [6], 105 nM; in data set [1] it was 1620 nM; on D(2) dopamine receptor it was 260 nM; in data set [2], 53 nM. Besides, the remaining at 0.5 h, 10 µM in data set [3] was 3 to 3.3%. Moreover, the logKw in data set [4] is 0.62.
For the compound `O=C(CCCCCN1CCN(c2ccccc2-c2ccccc2)CC1)NCc1ccc(OCCCN2CCOCC2)cc1`, the Ki in data set [5] is 9.5 nM; in data set [6], 149 nM; in data set [1], 1150 nM; on D(2) dopamine receptor, 64 nM; in data set [2] it was 12.3 nM. Further, in data set [3], the remaining at 0.5 h, 10 µM stood at 3.3%. Moreover, the logKw in data set [4] stood at 0.63.
For `CS(=O)(=O)Oc1ccc(CNC(=O)CCCCCN2CCN(c3ccccc3-c3ccccc3)CC2)cc1`, the remaining at 0.5 h, 10 µM in data set [3] was less than 3%.
Regarding `N#Cc1ccc(CNC(=O)CCOCCN2CCN(c3cccnc3-c3ccc(F)cc3)CC2)cc1`, the Ki is 108 nM in data set [5]; 6630 nM in data set [6]; 2810 nM in data set [1]; 1960 nM at D(2) dopamine receptor; 914 nM in data set [2]. Besides, the remaining at 0.5 h, 10 µM in data set [3] came out at 9%. This compound also registered a logKw in data set [4] of -0.09.
`COc1ccc(-c2ccccc2N2CCN(CCCCCC(=O)NCc3ccc(OCCO)cc3)CC2)cc1`: the Ki worked out at 14.5 nM in data set [5]; 152 nM in data set [6]; 1340 nM in data set [1]; 419 nM on D(2) dopamine receptor; 53 nM in data set [2]. Moreover, in data set [3], the remaining at 0.5 h, 10 µM was 19%. Further, in data set [4], the logKw is on record as 0.39.
For the compound `O=C(CCOCCN1CCN(c2ncccc2-c2ccccc2)CC1)NCc1ccc(C(F)(F)F)cc1`, the Ki was found to be 52 nM in data set [5], 365 nM in data set [6], 1040 nM in data set [1] and 1220 nM in data set [2]. Moreover, in data set [3], the remaining at 0.5 h, 10 µM came out at 1%. The compound also returned a logKw in data set [4] of 0.48.
As to `O=C(CCOCCN1CCN(c2cccnc2-c2ccccc2)CC1)NCc1ccc(C(F)(F)F)cc1`, the Ki worked out at 44 nM in data set [5]; 802 nM in data set [6]; 2210 nM in data set [1]; 2770 nM on D(2) dopamine receptor; 471 nM in data set [2]. In data set [3], the remaining at 0.5 h, 10 µM worked out at 1%. In addition, in data set [4], the logKw came to 0.16.
In the case of `N#Cc1ccc(CNC(=O)CCOCCN2CCN(c3cccnc3-c3ccccc3)CC2)cc1`, the inhibition constant Ki in data set [5] worked out at 87 nM; in data set [6] it was 3840 nM; in data set [1], 3440 nM; in data set [2], 310 nM. Also, in data set [3], the remaining at 0.5 h, 10 µM is 2%. The same compound showed a logKw in data set [4] of -0.14.
On to `COc1ccc(-c2ccccc2N2CCN(CCOCCC(=O)NCc3cccnc3)CC2)cc1`, for which the remaining at 0.5 h, 10 µM in data set [3] worked out at 23%. This compound also returned a logKw in data set [4] of 0.23.
With `COc1ccc(-c2ccccc2N2CCN(CCCCCC(=O)NCc3cccnc3)CC2)cc1`, the remaining at 0.5 h, 10 µM in data set [3] came out at 32%. In addition, the logKw in data set [4] worked out at 0.38.
For `O=C(CCCCCN1CCN(c2ccccc2-c2ccccc2)CC1)NCc1ccccc1` the same measures were less than 3% and 0.68.
As for `COCOc1ccc(CNC(=O)CCCCCN2CCN(c3ccccc3-c3ccc(OC)cc3)CC2)cc1`, the Ki in data set [5] is 6.5 nM; in data set [6], 160 nM; in data set [1], 640 nM; on D(2) dopamine receptor, 321 nM; in data set [2], 5.9 nM. In addition, in data set [3], the remaining at 0.5 h, 10 µM was found to be 8.3%. The compound further returned a logKw in data set [4] of 0.38.
For `CN(C)Cc1ccc(CNC(=O)CCCCCN2CCN(c3ccccc3-c3ccccc3)CC2)cc1`, the Ki worked out at 21 nM in data set [5]; 74 nM in data set [6]; 1510 nM in data set [1]; 75 nM on D(2) dopamine receptor; 23 nM in data set [2]. Further, in data set [3], the remaining at 0.5 h, 10 µM lay within 3 to 5%. The same compound gave a logKw in data set [4] of 0.68.
For the compound `COc1ccc(-c2ccccc2N2CCN(CCCCCC(=O)NCc3ccccn3)CC2)cc1`, in data set [3], the remaining at 0.5 h, 10 µM stood at 6%. In data set [4], the logKw amounted to 0.47.
For `COc1ccc(-c2ccccc2N2CCN(CCCCCC(=O)NCc3ccc(OCCN4CCOCC4)cc3)CC2)cc1`, the inhibitory constant (Ki) amounted to 25 nM in data set [5]; 163 nM in data set [6]; 1710 nM in data set [1]; 375 nM at D(2) dopamine receptor; 26 nM in data set [2]. Moreover, the remaining at 0.5 h, 10 µM in data set [3] is 15%. This compound returned a logKw in data set [4] of 0.57.
Turning to `C[C@@H](NC(=O)CCCCCN1CCN(c2ccccc2-c2ccccc2)CC1)c1ccccc1`, the Ki in data set [5] was 10.5 nM; in data set [6], 80 nM; in data set [1], 561 nM; on D(2) dopamine receptor, 116 nM; in data set [2], 36.6 nM. The remaining at 0.5 h, 10 µM in data set [3] is 9%. Further, the logKw in data set [4] is recorded as 0.75.
Turning to `O=C(CCOCCN1CCN(c2ccccc2-c2ccccc2)CC1)NCc1ccc(C(F)(F)F)cc1`, the inhibition constant Ki in data set [1] was determined as 830 nM; at D(2) dopamine receptor, 345 nM; in data set [2], 245 nM. Further, in data set [3], the remaining at 0.5 h, 10 µM came out at 3%. Also, in data set [4], the logKw came out at 0.75.
On to `N#Cc1ccc(CNC(=O)CCOCCN2CCN(c3ncccc3-c3ccc(F)cc3)CC2)cc1`, for which the Ki came to 54 nM in data set [5], 2630 nM in data set [6], 1620 nM in data set [1] and 156 nM in data set [2]. In addition, the remaining at 0.5 h, 10 µM in data set [3] is 1%. The same compound returned a logKw in data set [4] of 0.15.
Turning to `C[C@H]1CN(c2ccccc2-c2ccccc2)CCN1CCCCCC(=O)NCc1ccccc1`, the Ki stood at 36.5 nM in data set [5]; 202 nM in data set [6]; 395 nM in data set [1]; 243 nM on D(2) dopamine receptor; 42.6 nM in data set [2]. Moreover, the remaining at 0.5 h, 10 µM in data set [3] was 5%. Further, the logKw in data set [4] is reported as 0.59.
Take `C[C@@H]1CN(c2ccccc2-c2ccccc2)CCN1CCCCCC(=O)NCc1ccccc1`: the Ki in data set [5] amounted to 14 nM; in data set [6] it was 101 nM; in data set [1], 434 nM; on D(2) dopamine receptor it was 178 nM; in data set [2] it was 11.6 nM. Besides, the remaining at 0.5 h, 10 µM in data set [3] worked out at 3%. The compound further had a logKw in data set [4] of 0.58.
Regarding `COc1ccc(-c2ccccc2N2CCN(CCCCCC(=O)N[C@@H](C)c3ccccc3)CC2)cc1`, the Ki came to 15.5 nM in data set [5]; 103 nM in data set [6]; 652 nM in data set [1]; 177 nM at D(2) dopamine receptor; 22.1 nM in data set [2]. The remaining at 0.5 h, 10 µM in data set [3] worked out at 21%. For the same compound, in data set [4], the logKw was determined as 0.71.
`O=C(CCCCCN1CCN(c2ccccc2-c2ccccc2)CC1)NCc1ccc(OCCO)cc1`: the results for the Ki in data set [5] and in data set [2] were 259 nM and 4.5 nM, respectively. Also, in data set [3], the remaining at 0.5 h, 10 µM amounted to 10%.

The values are drawn from ChEMBL document CHEMBL3856221, “Structural modifications of the serotonin 5-HT7 receptor agonist N-(4-cyanophenylmethyl)-4-(2-biphenyl)-1-piperazinehexanamide (LP-211) to improve in vitro microsomal stability: A case study” (Eur J Med Chem, 2016).
